pIC50: −log10 of the molar value.
Experiments:
TrkB = system: TrkB; parameters: method as in printed; conditions: preclinical, ref not given; cited from earlier work
OCT2 = system: OCT2; parameters: method as in printed; conditions: preclinical testing, ref not given; cited from earlier work
PLK2 = system: PLK2; parameters: method as in printed; conditions: preclinical, ref not given; cited from earlier work
CYP3A4 = system: CYP3A4; parameters: method as in printed; conditions: preclinical testing, ref not given; cited from earlier work
Bmx = system: Bmx; parameters: method as in printed; conditions: preclinical, ref not given; cited from earlier work
AurB = system: AurB; parameters: method as in printed; conditions: preclinical, ref not given; cited from earlier work
FGFR2 = system: FGFR2; parameters: method as in printed; conditions: preclinical, ref not given; cited from earlier work
[1] = system: patients with advanced solid tumours; test: Phase 1 safety: treatment-related adverse events (CTCAE v4.03); type: in vivo, human
Description: All patients who received at least one dose of CFI-400945 were included in analyses of the safety-evaluable population. Data cut-off for the safety-evaluable population was June 5, 2018. Adverse events (AEs) were assessed according to the National Cancer Institute (NCI) Common Terminology Criteria for Adverse Events (CTCAE) v4.03. Investigators determined the causal relationship of an AE as either unrelated, possibly, probably, or related to study drug. Further information is available in Supplementary Information 1d.
Investigators managed any AE until resolution, stabilization, or until the AE was considered no longer clinically significant. All AE and serious AE (SAE) were recorded in source documents and individual case report forms from the time of first dose of study drug until 30 days following the last dose of study drug.
Safety evaluations were conducted at screening and during Cycle 1 on Day 1, 2, 4, 8, 11, 15, 22, and 28. In the expansion cohort, following the run-in amendment, safety evaluations were conducted on Cycle 0 Day 1, 2, 4, 8, and 11, then as above for Cycle 1. Evaluations included pre-defined combinations of medical history, physical examination, vital signs, clinical laboratory studies, and ECOG performance status.

[2] = system: patient-derived xenograft (PDX) models across multiple tumour types; conditions: preclinical, including PDX models; cited from earlier work
OCT1 = system: OCT1; parameters: method as in printed; conditions: preclinical testing, ref not given; cited from earlier work
BSEP = system: BSEP; parameters: method as in printed; conditions: preclinical testing, ref not given; cited from earlier work
Abl [T315I] = system: Abl [T315I]; parameters: method as in printed; conditions: preclinical, ref not given; cited from earlier work
PLK3 = system: PLK3; parameters: method as in printed; conditions: preclinical, ref not given; cited from earlier work
PLK1 = system: PLK1; parameters: method as in printed; conditions: preclinical, ref not given; cited from earlier work
[3] = safety-evaluable population (n = 52)

## COc1ccc2c(c1)[C@]1(C[C@H]1c1ccc3c(/C=C/c4ccc(CN5C[C@@H](C)O[C@@H](C)C5)cc4)n[nH]c3c1)C(=O)N2 [CFI-400945]
TrkB
  pIC50: > 7.00
OCT2
  inhibition of OCT2: inhibitor
PLK2
  pIC50: < 4.30
CYP3A4
  time-dependent inhibition of CYP3A4: time-dependent inhibitor
Bmx
  pIC50: > 7.00
AurB
  pIC50: > 7.00
FGFR2
  pIC50: > 7.00
[1]; 48 mg dose level
  grade 2 neutropenia: one patient
[1]; 48 mg, at data cut-off
  long-term tolerability: time one patient remained on treatment: > 3 years
[1]; 64 mg
  patients dose reduced: No patients
[1]; 3 patients, at 72 mg and 96 mg dose levels, recurrent neutropenia
  patients dose reduced: 6%
[1]; 3–32 mg cohort (n = 21)
  Anorexia, treatment-related, Grade 1/2: 4 (19) N (%)
  Anorexia, treatment-related, Grade 3/4: 0 (0) N (%)
  Dehydration, treatment-related, Grade 1/2: 1 (5) N (%)
  Dehydration, treatment-related, Grade 3/4: 0 (0) N (%)
  Diarrhoea, treatment-related, Grade 1/2: 4 (19) N (%)
  Diarrhoea, treatment-related, Grade 3/4: 0 (0) N (%)
  Dyspepsia, treatment-related, Grade 1/2: 1 (5) N (%)
  Dyspepsia, treatment-related, Grade 3/4: 0 (0) N (%)
  Fatigue, treatment-related, Grade 1/2: 5 (24) N (%)
  Fatigue, treatment-related, Grade 3/4: 0 (0) N (%)
  Hypomagnesaemia, treatment-related, Grade 1/2: 0 (0) N (%)
  Hypomagnesaemia, treatment-related, Grade 3/4: 0 (0) N (%)
  Nausea, treatment-related, Grade 1/2: 3 (14) N (%)
  Nausea, treatment-related, Grade 3/4: 0 (0) N (%)
  Neutropenia, treatment-related, Grade 1/2: 0 (0) N (%)
  Neutropenia, treatment-related, Grade 3/4: 0 (0) N (%)
  Vomiting, treatment-related, Grade 1/2: 1 (5) N (%)
  Vomiting, treatment-related, Grade 3/4: 0 (0) N (%)
[1]; 3–96 mg cohort (n = 52)
  Anorexia, All trAEs: 10 (19) N (%)
  Dehydration, All trAEs: 3 (6) N (%)
  Diarrhoea, All trAEs: 11 (21) N (%)
  Dyspepsia, All trAEs: 3 (6) N (%)
  Fatigue, All trAEs: 19 (37) N (%)
  Hypomagnesaemia, All trAEs: 3 (6) N (%)
  Nausea, All trAEs: 14 (27) N (%)
  Neutropenia, All trAEs: 11 (21) N (%)
  Vomiting, All trAEs: 4 (8) N (%)
[1]; 6/10 events
  grade 3/4 neutropenic events occurring in Cycle 1: 60%
[1]; 10/52 patients, all dose levels
  grade 3/4 treatment-related neutropenia, patients: 19%
[1]; 27 of 52 patients
  patients with dose interruptions: 52%
[1]; 48–64 mg cohort (n = 18)
  Anorexia, treatment-related, Grade 1/2: 2 (11) N (%)
  Anorexia, treatment-related, Grade 3/4: 0 (0) N (%)
  Dehydration, treatment-related, Grade 1/2: 1 (6) N (%)
  Dehydration, treatment-related, Grade 3/4: 0 (0) N (%)
  Diarrhoea, treatment-related, Grade 1/2: 3 (17) N (%)
  Diarrhoea, treatment-related, Grade 3/4: 1 (6) N (%)
  Dyspepsia, treatment-related, Grade 1/2: 1 (6) N (%)
  Dyspepsia, treatment-related, Grade 3/4: 0 (0) N (%)
  Fatigue, treatment-related, Grade 1/2: 9 (50) N (%)
  Fatigue, treatment-related, Grade 3/4: 0 (0) N (%)
  Hypomagnesaemia, treatment-related, Grade 1/2: 1 (6) N (%)
  Hypomagnesaemia, treatment-related, Grade 3/4: 0 (0) N (%)
  Nausea, treatment-related, Grade 1/2: 5 (28) N (%)
  Nausea, treatment-related, Grade 3/4: 0 (0) N (%)
  Neutropenia, treatment-related, Grade 1/2: 1 (6) N (%)
  Neutropenia, treatment-related, Grade 3/4: 3 (17) N (%)
  Vomiting, treatment-related, Grade 1/2: 1 (6) N (%)
  Vomiting, treatment-related, Grade 3/4: 1 (6) N (%)
[1]; 72–96 mg cohort (n = 13)
  Anorexia, treatment-related, Grade 1/2: 4 (31) N (%)
  Anorexia, treatment-related, Grade 3/4: 0 (0) N (%)
  Dehydration, treatment-related, Grade 1/2: 1 (8) N (%)
  Dehydration, treatment-related, Grade 3/4: 0 (0) N (%)
  Diarrhoea, treatment-related, Grade 1/2: 3 (23) N (%)
  Diarrhoea, treatment-related, Grade 3/4: 0 (0) N (%)
  Dyspepsia, treatment-related, Grade 1/2: 1 (8) N (%)
  Dyspepsia, treatment-related, Grade 3/4: 0 (0) N (%)
  Fatigue, treatment-related, Grade 1/2: 5 (38) N (%)
  Fatigue, treatment-related, Grade 3/4: 0 (0) N (%)
  Hypomagnesaemia, treatment-related, Grade 1/2: 2 (15) N (%)
  Hypomagnesaemia, treatment-related, Grade 3/4: 0 (0) N (%)
  Nausea, treatment-related, Grade 1/2: 6 (46) N (%)
  Nausea, treatment-related, Grade 3/4: 0 (0) N (%)
  Neutropenia, treatment-related, Grade 1/2: 0 (0) N (%)
  Neutropenia, treatment-related, Grade 3/4: 7 (54) N (%)
  Vomiting, treatment-related, Grade 1/2: 1 (8) N (%)
  Vomiting, treatment-related, Grade 3/4: 0 (0) N (%)
[1]; in vivo
  median time for neutrophils to recover to grade ≤1: 7 days
  median time to first grade 3/4 neutropenic event: 18 days
  time for neutrophils to recover to grade ≤1, range: 6 to 14 days
  time to first grade 3/4 neutropenic event, range: 14 to 126 days
[1]; one DLT at 72 mg, one DLT in 64 mg cohort
  treatment-related AEs leading to study discontinuation: two patients
[1]; [3]
  treatment-related anorexia, patients: 19%
  treatment-related dehydration, patients: 6%
  treatment-related diarrhoea, patients: 21%
  treatment-related dyspepsia, patients: 6%
  treatment-related fatigue, patients: 37%
  treatment-related hypomagnesaemia, patients: 6%
  treatment-related neutropenia, patients: 21%
  treatment-related vomiting, patients: 8%
[2]
  in vivo antitumour activity: robust in vivo antitumour activity
OCT1
  inhibition of OCT1: inhibitor
BSEP
  inhibition of BSEP: inhibitor
Abl [T315I]
  pIC50: > 7.00
PLK3
  pIC50: < 4.30
PLK1
  pIC50: < 4.30

Reference: PMC6738068 (British Journal of Cancer, 2019)
